# Experimental data published in article PMC6133161, “Thiazoles with cyclopropyl fragment as antifungal, anticonvulsant, and anti-Toxoplasma gondii agents: synthesis, toxicity evaluation, and molecular docking study” (Medicinal Chemistry Research, 2018).
# How the values were obtained:
# [1] = test system: maximal electroshock seizures; assay: Maximal electroshock seizure (MES) test; type: in vivo, mouse; conditions: mice; for responders at 100 mg/kg: 100 mg/kg ip, read-out: X/Y number of mice protected (X) per number of mice tested (Y) (converted)
# Procedure: For in vivo tests that assessed anticonvulsant properties of the test compounds 3a–3j adult male Albino Swiss (CD-1) mice weighing between 18 and 22 g were used. The animals were housed in groups of ten mice per cage at room temperature of 22 ± 2 °C, under light/dark (12:12) cycle. The animals had free access to food and tap water before the experiments. The ambient temperature of the experimental room and humidity (50 ± 10%) were kept consistent throughout all the tests. For behavioral experiments the animals were selected randomly. Each experimental group consisted of 4–8 animals/dose. The experiments were performed between 9 AM and 2 PM. Immediately after the in vivo assay the animals were euthanized by cervical dislocation. All procedures were approved by the Local Ethics Committee of the Jagiellonian University in Krakow (34/2018, 1.02.2018)) and the treatment of animals was in full accordance with ethical standards laid down in respective Polish and EU regulations (Directive No. 86/609/EEC). For in vivo tests the compounds 3a–3j were prepared in 1% Tween 80 solution (POCH, Poland) and they were administered by the intraperitoneal route. Control mice received 1% Tween 80. Pentylenetetrazole (PTZ), pilocarpine hydrochloride and scopolamine butylbromide were provided by Sigma Aldrich (Poland). For the tests they were prepared in 0.9% saline (Polfa Kutno, Poland). PTZ and pilocarpine were administered 60 min after the test compound or vehicle. To assess anticonvulsant properties of the test compounds anticonvulsant screening was conducted. Four assays were used: PTZ, maximal electroshock seizure (MES), 6-Hz and pilocarpine tests. In these assays the dose of 100 mg/kg was chosen as a starting dose. If it turned out to be effective, a lower dose (30 mg/kg) was also tested. MES test was performed according to a method previously described (Sałat et al. [2005]). In this test vehicle-treated mice and drug-treated mice received a stimulus of 25 mA delivered by an electroshock generator (Hugo Sachs rodent shocker, Germany) to induce maximal seizures (tonic extension) of hind limbs. Electroconvulsions were produced with the use of auricular electrodes and the stimulus duration was 0.2 s. Tonic extension of the hind limbs was regarded as the endpoint for this procedure.
# C. kefyr = assay: Broth microdilution MIC/MFC, clinical isolate; type: cell-based; conditions: C. kefyr clinical strain; for MFC / MIC: Kluyveromyces marxianus; for MFC: read-out: MFC; for MIC: read-out: MIC
# Description: (§1) In the study of antifungal activity of the compounds 3a–3j, 15 clinical strains of different species of yeasts from Candida species, namely C. albicans, C. dubliniensis C. famata, C. inconspicua, C. krusei, C. tropicalis, C. glabrata, C. lambica, C. kefyr, C. lusitaniae, C. parapsilosis, C. guilliermondii, C. lusitaniae, C. pulcherrima and C. sake were also used. These fungi were isolated by the author (from Department of Pharmaceutical Microbiology of Medical University in Lublin, Poland) from different clinical materials, e.g., from upper respiratory tract of hospitalized patients including cancer patients (i.e., with non-small cell lung cancer or hematological malignancies). Some patients were after pre-operative or post-operative chemotherapy (treated with etoposide or cis-platin given in doses according to the standard procedures), patients with chronic hepatitis C (undergoing peginterferon and ribavirin therapy or without antiviral therapy), patients with diabetes, elderly people, aged of 65 years old or older, staying in close population, such as a care centre and people staying outside the home care. The Ethical Committee of the Medical University of Lublin approved the study protocol (No. KE-0254/75/2011). The isolates were identified by standard diagnostic methods—biochemical microtest, e.g., API 20C AUX, ID 32C, API Candida (bioMérieux) on the basis of assimilation of various substrates. All the used microbial cultures were first subcultured on nutrient agar or Sabouraud agar for bacteria and fungi, respectively. The RPMI 1640 with MOPS (for fungi) were inoculated with the suspensions of fungal species. Microbial suspensions were prepared in sterile saline (0.85% NaCl) with an optical density of 0.5 McFarland standard scale (Wiegand et al. [2008]). Samples containing examined compounds were dissolved in dimethyl sulfoxide (DMSO). Furthermore, fungal suspensions were put onto Petri dishes with solid media containing 2 mg/ml of the tested compounds followed incubation under appropriate conditions. The inhibition of microbial growth was judged by comparison with a control culture prepared without any sample tested. Nystatin (Sigma) was used as a reference antifungal compound. Subsequently MIC minimal inhibitory concentration (MIC) of the compounds was examined by the microdilution broth method, using their two-fold dilutions in RPMI 1640 broth with MOPS prepared in 96-well polystyrene plates. Final concentrations of the compounds ranged from 1000 to 0.0038 µg/ml. Microbial suspensions were prepared in sterile saline with an optical density of 0.5 McFarland standard. Next fungal suspension was added per each well containing broth and various concentrations of the examined compounds. After incubation, the MIC was assessed spectrophotometric as the lowest concentration of the samples showing complete fungal growth inhibition. Appropriate DMSO, growth and sterile controls were carried out. The medium with no tested substances was used as a control (Wiegand et al. [2008]). The minimal fungicidal concentration (MFC) are defined as the lowest concentration of the compounds that is required to kill a particular fungal species. MFC was determined by removing the culture using for MIC determinations from each well and spotting onto appropriate agar medium. The plates were incubated. The lowest compounds concentration with no visible growth observed was assessed as a fungicidal concentration. All the experiments were repeated three times and representative data are presented.
# (§2) The MFC/MIC ratios were calculated in order to determine fungicidal (MFC/MIC ≤ 4) or fungistatic (MFC/MIC > 4) effect of the tested compounds (O’Donnell et al. [2010]).
# C. lambica = assay: Broth microdilution MIC/MFC, clinical isolate; type: cell-based; conditions: Pichia fermentans, C. lambica clinical strain; for MFC: read-out: MFC; for MIC: read-out: MIC
# Description: as §1, §2
# C. krusei = assay: Broth microdilution MIC/MFC, clinical isolate; type: cell-based; conditions: Pichia kudriavzevii, C. krusei clinical strain; for MFC: read-out: MFC; for MIC: read-out: MIC
# Description: as §1, §2
# C. albicans = assay: Broth microdilution MIC/MFC, clinical isolate; type: cell-based; conditions: Candida albicans, C. albicans clinical strain; for MFC: read-out: MFC; for MIC: read-out: MIC
# Description: as §1, §2
# C. inconspicua = assay: Broth microdilution MIC/MFC, clinical isolate; type: cell-based; conditions: Pichia inconspicua, C. inconspicua clinical strain; for MFC: read-out: MFC; for MIC: read-out: MIC
# Description: as §1, §2
# C. famata = assay: Broth microdilution MIC/MFC, clinical isolate; type: cell-based; conditions: Debaryomyces hansenii, C. famata clinical strain; for MFC: read-out: MFC; for MIC: read-out: MIC
# Description: as §1, §2
# C. dubliniensis = assay: Broth microdilution MIC/MFC, clinical isolate; type: cell-based; conditions: Candida dubliniensis, C. dubliniensis clinical strain; for MFC: read-out: MFC; for MIC: read-out: MIC
# Description: as §1, §2
# C. glabrata = assay: Broth microdilution MIC/MFC, clinical isolate; type: cell-based; conditions: Nakaseomyces glabratus, C. glabrata clinical strain; for MFC: read-out: MFC; for MIC: read-out: MIC
# Description: as §1, §2
# C. guilliermondii = assay: Broth microdilution MIC/MFC, clinical isolate; type: cell-based; conditions: Meyerozyma guilliermondii, C. guilliermondii clinical strain; for MFC: read-out: MFC; for MIC: read-out: MIC
# Description: as §1, §2
# C. tropicalis = assay: Broth microdilution MIC/MFC, clinical isolate; type: cell-based; conditions: Candida tropicalis, C. tropicalis clinical strain; for MFC: read-out: MFC; for MIC: read-out: MIC
# Description: as §1, §2
Compound,"responders at 100 mg/kg ([1]; Mus musculus, MES test)",MFC (C. kefyr),MIC (C. kefyr),MFC (C. lambica),MIC (C. lambica),MFC (C. krusei),MIC (C. krusei),MFC (C. albicans),MIC (C. albicans),MFC (C. inconspicua),MIC (C. inconspicua),MFC (C. famata),MIC (C. famata),MFC (C. dubliniensis),MIC (C. dubliniensis),MFC (C. glabrata),MIC (C. glabrata),MFC (C. guilliermondii),MIC (C. guilliermondii),MFC (C. tropicalis),further results
"Clc1ccc(-c2csc(N/N=C/C3CC3)n2)cc1 [Compound 3c, (E)-4-(4-Chlorophenyl)-2-(2-(cyclopropylmethylene)hydrazinyl)thiazole]",75%,> 1000 µg/mL,31.2 µg/mL,> 1000 µg/mL,125 µg/mL,0.48 µg/mL,0.12 µg/mL,0.98 µg/mL,0.06 µg/mL,3.91 µg/mL,0.98 µg/mL,0.98 µg/mL,0.12 µg/mL,0.06 µg/mL,0.03 µg/mL,> 1000 µg/mL,500 µg/mL,0.98 µg/mL,0.24 µg/mL,0.12 µg/mL,"animals with reduced seizures ([1]; MES test, 100 mg/kg): 75%; responders at 30 mg/kg ([1]; Mus musculus, MES test, 30 mg/kg ip, read-out: X/Y number of mice protected (X) per number of mice tested (Y)): 0%; anticonvulsant activity in MES test ([1]; 30 mg/kg): not active; MIC (C. tropicalis): 0.12 µg/mL"
"COc1ccc(-c2csc(N/N=C/C3CC3)n2)cc1 [Compound 3f, (E)-2-(2-(Cyclopropylmethylene)hydrazinyl)-4-(4-methoxyphenyl)thiazole]",50%,7.81 µg/mL,1.95 µg/mL,> 1000 µg/mL,31.2 µg/mL,0.015 µg/mL,0.015 µg/mL,0.98 µg/mL,0.24 µg/mL,0.98 µg/mL,0.03 µg/mL,7.81 µg/mL,0.48 µg/mL,0.06 µg/mL,0.015 µg/mL,> 1000 µg/mL,31.2 µg/mL,7.81 µg/mL,0.48 µg/mL,0.98 µg/mL,MFC/MIC (C. kefyr): 4; MIC (C. tropicalis): 0.06 µg/mL
"Cc1ccc(-c2csc(N/N=C/C3CC3)n2)cc1 [Compound 3d, (E)-2-(2-(Cyclopropylmethylene)hydrazinyl)-4-p-tolylthiazole]",37.5%,7.81 µg/mL,1.95 µg/mL,> 1000 µg/mL,15.6 µg/mL,0.98 µg/mL,0.24 µg/mL,0.24 µg/mL,0.12 µg/mL,0.98 µg/mL,0.12 µg/mL,3.91 µg/mL,0.48 µg/mL,0.12 µg/mL,0.06 µg/mL,> 1000 µg/mL,15.6 µg/mL,3.91 µg/mL,0.48 µg/mL,0.12 µg/mL,MIC (C. tropicalis): 0.06 µg/mL
"O=[N+]([O-])c1ccc(-c2csc(N/N=C/C3CC3)n2)cc1 [Compound 3j, (E)-2-(2-(Cyclopropylmethylene)hydrazinyl)-4-(4-nitrophenyl)thiazole]",50%,> 1000 µg/mL,125 µg/mL,> 1000 µg/mL,250 µg/mL,0.12 µg/mL,0.06 µg/mL,0.48 µg/mL,0.24 µg/mL,1.95 µg/mL,0.98 µg/mL,31.2 µg/mL,1.95 µg/mL,0.48 µg/mL,0.24 µg/mL,> 1000 µg/mL,125 µg/mL,0.98 µg/mL,0.24 µg/mL,0.015 µg/mL,MIC (C. tropicalis): 0.015 µg/mL
